Experimental data: ChEMBL document CHEMBL3785084, “Rational modification of the lead molecule: Enhancement in the anticancer and dihydrofolate reductase inhibitory activity” (Bioorg Med Chem Lett, 2016)
The source made the active and inactive calls. No cut-off for these calls is given here.

Columns and labels:
SK-MEL-2 = test: Cytotoxicity against human SK-MEL-2 cells after 48 hrs by sulforhodamine B assay; format: functional; settings: SK-MEL-2, 48 h
[1] = target: Dihydrofolate reductase (Homo sapiens) (UniProt P00374)
NCI-H460 = test: cells; settings: Homo sapiens, NCI-H460, 48 h; for CC50: read-out: LC50
NCI-H522 = test: cells; settings: Homo sapiens, NCI-H522, 48 h
[2] = Cytotoxicity against human BT549 cells after 48 hrs by sulforhodamine B assay; format: functional; settings: BT-549, 48 h
cells = settings: Homo sapiens, PC-3, 48 h; for CC50: read-out: LC50
HT-29 = test: cells; settings: Homo sapiens, HT-29, 48 h; for CC50: read-out: LC50
[3] = target: Dihydrofolate reductase (Homo sapiens) (UniProt P00374); settings: 20 to 30 uM
U-251 = test: Cytotoxicity against human U251 cells assessed as cell growth at 10^-5 M after 48 hrs by sulforhodamine B assay; format: functional; settings: U-251, 48 h, read-out: Activity
[4] = Cytotoxicity against human HOP62 cells assessed as cell growth at 10^-5 M after 48 hrs by sulforhodamine B assay; format: functional; settings: HOP-62, 48 h, read-out: Activity
[5] = Cytotoxicity against human COLO205 cells assessed as cell growth at 10^-5 M after 48 hrs by sulforhodamine B assay; format: functional; settings: COLO 205, 48 h, read-out: Activity

Structure (SMILES)	GI50 (NCI-H460)	TGI (NCI-H460)	CC50 (NCI-H460)	GI50 (NCI-H522)	TGI (NCI-H522)	GI50 (cells)	TGI (cells)	CC50 (cells)	GI50 (HT-29)	TGI (HT-29)	CC50 (HT-29)	also measured
O=C1Nc2ccccc2/C1=C/c1cn(CC(O)Cn2cc(/C=C3\C(=O)Nc4ccccc43)c3ccccc32)c2ccccc12 (stereo not drawn)	0.48 µM	1.8 µM	6.6 µM	1.6 µM	3.5 µM	1.2 µM	2.6 µM	5.8 µM	1.4 µM	3.5 µM	8.7 µM	GI50 (SK-MEL-2): 1.7 µM; TGI (SK-MEL-2): 3.4 µM; CC50 (SK-MEL-2; read-out: LC50 (the source's name)): 6.9 µM; Ka [1]: 1.38 ×10⁵ /M; GI50 [2]: 1.7 µM; TGI [2]: 3.6 µM; inhibition [3]: Active
COc1cc(/C=C2\C(=O)Nc3ccccc32)cc(OC)c1O	3 µM	11.7 µM	53.7 µM	1.7 µM	5.1 µM	20.8 µM	> 100 µM	> 100 µM	9.1 µM	30.9 µM	> 100 µM	growth at 10 µM (U-251): 47%; growth at 10 µM [4]: 64.3%; CC50 (NCI-H522; read-out: LC50): 22.9 µM; growth at 10 µM [5]: 112%
